Reference: US8697685B2, “Chemical compounds” (GlaxoSmithKline LLC, priority 2008, dated 2014)
pIC50: −log10 of the molar value.

target: T1, full length PDK1 (Homo sapiens, UniProt O15530); experiment: PDK1 enzyme assays (substrate phosphorylation: LEADseeker scintillation proximity, TR-FRET, PDKtide); type: biochemical; conditions: in at least one experimental run, read-out: IC50 against full length PDK1
T1 construct: Full-length human 3-Phosphoinositide Dependent protein Kinase-1; made in house; host or cells: baculovirus / Sf9 insect cells
T1 sequence (O15530 1-556): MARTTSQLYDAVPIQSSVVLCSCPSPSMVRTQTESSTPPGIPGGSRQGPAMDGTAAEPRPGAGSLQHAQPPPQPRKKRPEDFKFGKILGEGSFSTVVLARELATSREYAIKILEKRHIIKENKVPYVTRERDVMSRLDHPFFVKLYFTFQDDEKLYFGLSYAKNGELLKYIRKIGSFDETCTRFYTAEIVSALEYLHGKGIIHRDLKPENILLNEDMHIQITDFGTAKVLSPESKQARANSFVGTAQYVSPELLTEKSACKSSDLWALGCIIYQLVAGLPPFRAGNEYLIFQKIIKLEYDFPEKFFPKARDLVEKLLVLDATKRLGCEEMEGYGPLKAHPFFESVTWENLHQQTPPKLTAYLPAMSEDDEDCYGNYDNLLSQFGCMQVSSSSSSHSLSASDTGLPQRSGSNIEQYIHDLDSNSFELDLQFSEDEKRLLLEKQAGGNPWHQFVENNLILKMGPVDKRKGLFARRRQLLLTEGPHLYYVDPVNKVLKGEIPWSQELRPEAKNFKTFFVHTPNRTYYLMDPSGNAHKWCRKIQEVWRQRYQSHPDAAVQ
Protocol: Substrate phosphorylation assays are carried out as follows:
Biotinylated-hAKT1: Human AKT1 (containing amino acid residues 136-480, as annotated by National Center for Biotechnology Information (NCBI) accession number AAL55732.1, with a MetLysLysHis6 N-terminal addition) is purified to >90% from lysate of baculovirus expression by Nickel Chelating ProBond resin (InVitrogen), Q-Sepharose Fast Flow, and Superdex 200 size exclusion chromatography. Biotinylation is achieved using EZ-Link Sulfo-NHS-LC Biotin (Pierce). Samples, in 25 mM HEPES, pH 7.5, 200 mM NaCl, 2 mM DTT, and 30% glycerol are stored at −80C until use.
Full-length human 3-Phosphoinositide Dependent protein Kinase-1 (hPDK1; National Center for Biotechnology Information (NCBI) accession number AAH39158.1 with a MetGlyHis6 N-terminal addition) is purified from baculovirus expression in Sf9 cells. Purity of approximately 80% is achieved by the use of chelation chromatography (Ni-NTA Superflow) and desalting columns. Samples, in 25 mM HEPES, 150 mM NaCl, 2.5 mM DTT, 0.05% Triton, 30% glycerol, pH 8.0, are stored at −80° C. until use.
The 39 amino acid biotinylated-PDKtide peptide Seq. ID No. 1: (Biotin-Ahx-[…]) was custom synthesized by 21st Century Biochemicals. […] The concentration was confirmed by quantitative amino acid analysis.
Scintillation Proximity (LEADseeker) Kinase Assay of Purified hPDK1:
Assays are performed in 384-well microtiter plates (Greiner, Catalog No. 784075). The reaction volume (10 μl) contains, in final concentrations, 25 mM MOPS (pH 7.5), 10 mM MgCl2, 50 mM KCl, 0.1 mg/ml BSA, 1 μM ATP, 3 uCi/ml ^33PγATP, 5 mM DTT, 1 mM CHAPS or 0.05% Tween20, 0.35 μM AKT1 biotinylated protein, and 10 nM hPDK1.
Compounds, titrated in DMSO, are evaluated at eleven concentrations ranging from 50 μM to 2 μM. […] Reactions are stopped after 3 hours at room temperature by the addition of 50 mM EDTA, 5 mg/ml LEADseeker beads (GE Healthcare) in PBS (10 ul). Beads are allowed to settle overnight, and samples are imaged on Viewlux (PerkinElmer).
The data for compound concentration responses were plotted as % Inhibition, calculated with the data reduction formula 100*(1−[(U1−C2)/(C1−C2)]), versus concentration of compound, where
Data were fitted to the curve described by:
TR-FRET Kinase Assay of Purified hPDK1:
Assays are performed in 384-well microtiter plates (Greiner, Catalog No. 784076).
As previously described for the Scintillation Proximity protocol, hPDK1 is pre-incubated (30 minutes at room temperature) with compounds before initiating phosphorylation of AKT1 by addition of substrate to the hPDK1 and compound mix. Reactions are stopped after 4-6 hours at room temperature by the addition to final concentrations of 0.02 M EDTA, 0.0875 μM Streptavidin APC (PerkinElmer), 0.03 μM AKT1 (phospho T308) antibody (Abcam Inc.), 0.00375 μM Lance Eu-labeled anti rabbit IgG Antibody (PerkinElmer). Antibody binding reaches equilibrium in 30 minutes before signal is read on an EnVision™ 2103 Multilabel Reader (PerkinElmer). APC Signals are normalized to Europium signal. Data processing is the same as described for the Scintillation Proximity assay with the exception of the generation of the “C2” control by addition of buffer without hPDK1 to control wells at t=0 instead of EDTA.
Scintillation Proximity (LEADseeker) Kinase Assay of Purified hPDK1 using Biotinylated-PDKtide Peptide:
Assays are performed in 384-well microtiter plates (Greiner, Catalog No. 784075). The reaction volume (10 μl) contains, in final concentrations, 25 mM MOPS (pH 7.5), 10 mM MgCl2, 50 mM KCl, 0.1 mg/ml BSA, 1 μM ATP, 3 uCi/ml ^33PγATP, 5 mM DTT, 0.5 mM CHAPS, 1 μM biotinylated-PDKtide peptide, and 0.5 nM hPDK1.
Compounds, titrated in DMSO, are evaluated at eleven concentrations ranging from 25 μM to 0.4 pM. […] Reactions are stopped after 4 hours at room temperature by the addition of 50 mM EDTA, 5 mg/ml LEADseeker beads (GE Healthcare) in PBS (10 ul).

pIC50 | Compound
> 7.00 | Nc1nc(NCC2CCCCC2)cc(-c2ccc3c(N)n[nH]c3c2)n1 [Example 38, 6-(3-Amino-1H-indazol-6-yl)-N^4-(cyclohexylmethyl)-2,4-pyrimidinediamine]
> 6.82 | CC[C@@H]1CCCN1c1cc(-c2ccc3c(N)n[nH]c3c2)nc(N)n1 [Example 46, 6-{2-Amino-6-[(2R)-2-ethyl-1-pyrrolidinyl]-4-pyrimidinyl}-1H-indazol-3-amine]
> 7.00 | Nc1nc(NC2CC2)cc(-c2ccc3c(N)n[nH]c3c2)n1 [Example 51, 6-(3-Amino-1H-indazol-6-yl)-N^4-cyclopropyl-2,4-pyrimidinediamine]
> 7.00 | CCCNc1cc(-c2ccc3c(N)n[nH]c3c2)nc(N)n1 [Example 74, 6-(3-Amino-1H-indazol-6-yl)-N^4-propyl-2,4-pyrimidinediamine]
> 7.30 | CC1CCC(NC(=O)OC2CCCC2)CN1c1cc(-c2ccc3c(N)n[nH]c3c2)nc(N)n1 (stereo not drawn) [Example 120, Cis-cyclopentyl{1-[2-amino-6-(3-amino-1H-indazol-6-yl)-4-pyrimidinyl]-6-methyl-3-piperidinyl}carbamate]
> 7.70 | C[C@@H]1CC[C@H](C(=O)NC2CCCC2)CN1c1cc(-c2ccc3c(N)n[nH]c3c2)nc(N)n1 [Example 142, (3S,6R)-1-[2-amino-6-(3-amino-1H-indazol-6-yl)-4-pyrimidinyl]-N-cyclopentyl-6-methyl-3-piperidinecarboxamide]
> 7.30 | Nc1nc(-c2ccc3c(N)n[nH]c3c2)cc(N2CCC[C@@H](NC(=O)OC3CCC3)C2)n1 [Example 209, Cyclobutyl{(3R)-1-[2-amino-6-(3-amino-1H-indazol-6-yl)-4-pyrimidinyl]-3-piperidinyl}carbamate]
> 7.30 | Nc1nc(-c2ccc3c(N)n[nH]c3c2)cc(N2CCC[C@@H](N3CCOC3=O)C2)n1 [Example 211, 3-{(3R)-1-[2-Amino-6-(3-amino-1H-indazol-6-yl)-4-pyrimidinyl]-3-piperidinyl}-1,3-oxazolidin-2-one]
> 7.30 | CC(C)OC(=O)N[C@@H]1CCCN(c2cc(-c3ccc4c(N)n[nH]c4c3)nc(N)n2)C1 [Example 217, 1-Methylethyl{(3R)-1-[2-amino-6-(3-amino-1H-indazol-6-yl)-4-pyrimidinyl]-3-piperidinyl}carbamate]

Second part, the compound before the results:

Compound | pIC50
Nc1nc(NCc2ccccc2)cc(-c2ccc3c(N)n[nH]c3c2)n1 [Example 2, 6-(3-Amino-1H-indazol-6-yl)-N^4-(phenylmethyl)-2,4-pyrimidinediamine] | > 7.00
CNc1nc(-c2ccc3c(N)n[nH]c3c2)cc(N2C[C@@H](C(=O)NCc3ccccc3)CC[C@H]2C)n1 [Example 80, (3S,6R)-1-[6-(3-Amino-1H-indazol-6-yl)-2-(methylamino)-4-pyrimidinyl]-6-methyl-N-(phenylmethyl)-3-piperidinecarboxamide] | > 7.70
CNc1nc(-c2cc(F)c3c(N)n[nH]c3c2)cc(N2C[C@@H](C(=O)NC3CCCCC3)CC[C@H]2C)n1 [Example 85, (3S,6R)-1-[6-(3-Amino-4-fluoro-1H-indazol-6-yl)-2-(methylamino)-4-pyrimidinyl]-N-cyclohexyl-6-methyl-3-piperidinecarboxamide] | > 7.70
C[C@@H]1CC[C@H](C(=O)NCCc2ccccc2)CN1c1cc(-c2ccc3c(N)n[nH]c3c2)nc(N)n1 [Example 149, (3S,6R)-1-[2-Amino-6-(3-amino-1H-indazol-6-yl)-4-pyrimidinyl]-6-methyl-N-(2-phenylethyl)-3-piperidinecarboxamide] | > 7.70
CC[C@@H]1COCCN1c1cc(-c2cc(NC3CCCC3)c3c(N)n[nH]c3c2)nc(NC)n1 [Example 181, N^4-Cyclopentyl-6-[6-[(3R)-3-ethyl-4-morpholinyl]-2-(methylamino)-4-pyrimidinyl]-1H-indazole-3,4-diamine] | > 6.82
CCOc1cc(-c2cc(N3CCOC[C@H]3CC)nc(NC)n2)cc2[nH]nc(N)c12 [Example 184, 6-[6-[(3R)-3-Ethyl-4-morpholinyl]-2-(methylamino)-4-pyrimidinyl]-4-(ethyloxy)-1H-indazol-3-amine] | > 6.82
CCOc1cc(-c2cc(N3CCOC[C@H]3C(C)C)nc(N)n2)cc2[nH]nc(N)c12 [Example 199, 6-{2-Amino-6-[(3R)-3-(1-methylethyl)-4-morpholinyl]-4-pyrimidinyl}-4-(ethyloxy)-1H-indazol-3-amine] | > 6.82
COc1cc(-c2cc(N3CCOC[C@H]3C)nc(N)n2)cc2[nH]nc(N)c12 [Example 200, 6-{2-Amino-6-[(3R)-3-methyl-4-morpholinyl]-4-pyrimidinyl}-4-(methyloxy)-1H-indazol-3-amine] | > 6.82
CNc1nc(-c2cc(OC)c3c(N)n[nH]c3c2)cc(N2CCC[C@@H](NC(=O)OC(C)(C)C)C2)n1 [Example 203, 1,1-Dimethylethyl{(3R)-1-[6-[3-amino-4-(methyloxy)-1H-indazol-6-yl]-2-(methylamino)-4-pyrimidinyl]-3-piperidinyl}carbamate] | > 7.30
